Tested on: serotonin-uptake
Experiment: Serotonin-uptake inhibition studies
Conditions: extensive studies conducted in respect of the present invention; no details

COc1ccc([C@@]23CCC(=O)C[C@@H]2N(C)CC3)cc1OC [mesembrine]
serotonin-uptake inhibition properties: do not show serotonin-uptake inhibition properties

Reference: patent US20160038551A1, “STABILIZED MESEMBRINE COMPOSITIONS” (BOTANICAL RESOURCE HOLDINGS PROPRIETARY LIMITED, priority 2013, published 2016)
